# Test system: rats post-IVH (CSF hypersecretion)
# Experiment: Rate of CSF production, post-hemorrhagic hydrocephalus model
# Assay type: in vivo, rat
# Details: ICV treatment for 48 hr
# Experimental: All animal experiments were approved by the Institutional Animal Care and Use Committee (IACUC) of the Yale University, and in accordance with the guidelines and regulations in the NIH Guide for the Care and Use of Laboratory Animals. Male Wistar rats (Harlan, Indianapolis, Ind., USA), age 8 weeks (220-230 g), were anesthetized (60 mg/kg ketamine plus 7.5 mg/kg xylazine, IP) and allowed to breathe room air spontaneously. Body temperature was maintained at 37±1° C. (Harvard Apparatus, Holliston, Mass., USA) throughout the course of the experiments. PHH was modeled using a modified protocol based on previously described methods (Karimy et al. (2015) Nature medicine 23: 997-1003; Simard et al. (2011) Transl Stroke Res 2: 227-231). […]
# Rates of CSF production were measured using the method we recently published (Karimy et al. (2015) Nature medicine 23: 997-1003). […] The volume (V) of CSF that forms at a given timepoint is calculated as: V (mm^3)=π·r^2·d, where r is the radius of the capillary tube and d is the distance CSF traveled within the capillary. The rate of CSF formation (μL/min) can be calculated from the slope of the volume-time relationship. A baseline rate of spontaneous CSF secretion (no drug infusion) was calculated over 30 minutes prior to drug infusion, then compared to the calculated rate of CSF formation following 30 minutes of ZT-1a infusion. […]
structure (smiles),measurement,value
"Cc1cc(C(C#N)c2ccc(Cl)cc2)c(Cl)cc1NC(=O)c1cc(Cl)ccc1O (stereo not shown) [ZT-1a, 5-chloro-N-(5-chloro-4-((4-chlorophenyl)(cyano)methyl)-2-methylphenyl)-2-hydroxy-benzamide]",decrease of post-IVH CSF hypersecretion,~57±6.2%
